Results taken from US7019139B2, “Quinolinones and uses thereof” (ARIAD Pharmaceuticals, Inc., priority 2001, dated 2006).

Assay: Hydroxyapatite assay (hydroxyapatite adsorption chromatography, bone-targeting potential)
Type: binding
Conditions: corrected K = (retention time-void time)/void on TSK-Gel HA 1000 HPLC column; linear gradient 10 mM to 500 mM sodium phosphate, 0.15 N NaCl, pH 6.8
Experimental: Hydroxyapatite is the principal mineral component of bone. Hydroxyapatite adsorption chromatography is used as an assay to evaluate the bone-targeting potential of both individual bone-targeting moieties (“monomers”) and of pharmaceuticals incorporating bone-targeting groups.
This K value is corrected using two reference compounds to correct from inter-column and inter-system variation to obtain a K′ value.
Reference Compounds: K′ values were determined for known bone targeted compounds, the bisphosphonate, alendronate and tetracycline.

With `NCCCC(O)(P(=O)(O)O)P(=O)(O)O` [Alendronate, alendronate] the “K′ value” was 3.7.
